As a reminder, the IC50 is the concentration needed to halve the response being measured.

Results on twelve molecules are retold here after patent US9670203B2 (BeiGene, LTD., priority 2013, dated 2017).

One assay addresses B-Raf (V600E) (Homo sapiens (Human), UniProt P15056, V600E). Description: Raf IC50 assay, time-resolved fluorescence energy transfer, B-Raf (V600E). The note with it: 0.1 mM ATP; read-out: IC50 (nM) B_Raf^V600E. The format is biochemical.
For the next assay, the target named is C-Raf (Y340D/Y341D) (Homo sapiens (Human), UniProt P04049, Y340D/Y341D). The assay is described as follows: Raf IC50 assay, time-resolved fluorescence energy transfer, C-Raf (Y340D/Y341D). The format is biochemical. The conditions noted are these: 0.1 mM ATP.
A further assay addresses wild type B-Raf (Homo sapiens (Human), UniProt P15056). The assay is described as follows: WT B-Raf IC50 assay, time-resolved fluorescence energy transfer. The format is biochemical. The protocol: The IC50 for each compound was calculated by non linear regression by Graphpad Prism software.
In another assay the test system is A375. The assay is described as follows: Anti-proliferative activity EC50 assay (CellTiter-Glo) in A375. The format is cell-based. The note with it: Homo sapiens, A-375, 72 h; 3-day exposure; read-out: Cell Proliferation EC50 (nM) A375. As to the method:
The growth-inhibitory activity of compounds in A375 and p61-A375, was determined using CellTiter-Glo luminescent cell viability assay (Promega). The 2,000 cells were seeded per well of a 96-well plate to ensure logarithmic growth could occur over the 3 days treatment period. Cells were left to attach for 16 hours, cells were treated in duplicate with a 10-point dilution series. Following a 3-day exposure to compounds disclosed herein, a volume of CellTiter-Glo reagent equal to the volume of cell culture medium present in each well was added. Mixture was mixed on an orbital shaker for 2 minutes to allow cell lysis, followed by 10 minutes incubation at room temperature to allow stabilization of luminescent signal, which corresponded to quantitation of ATP and thus the quantitation of metabolically active cells. Luminescent signal was measured using Pherastar FS reader (BMG Labtech).
EC50 values for growth inhibition were calculated by fitting dose-dependent data to the four-parameter logistic model using GraphPad Prism software.

The mark [1] stands for this setting: 2.5 mM ATP, read-out: IC50 (nM) B-Raf^WT 2.5 mM ATP.
The mark [2] stands for this setting: Km ATP (2.9 μM ATP), read-out: IC50 (nM) B-Raf^WT Km ATP.

Molecules are shown by their SMILES. Where two headings read alike, the source gives them in different places.

Sequence of C-Raf (Y340D/Y341D) (P04049 whole entry Y340D/Y341D): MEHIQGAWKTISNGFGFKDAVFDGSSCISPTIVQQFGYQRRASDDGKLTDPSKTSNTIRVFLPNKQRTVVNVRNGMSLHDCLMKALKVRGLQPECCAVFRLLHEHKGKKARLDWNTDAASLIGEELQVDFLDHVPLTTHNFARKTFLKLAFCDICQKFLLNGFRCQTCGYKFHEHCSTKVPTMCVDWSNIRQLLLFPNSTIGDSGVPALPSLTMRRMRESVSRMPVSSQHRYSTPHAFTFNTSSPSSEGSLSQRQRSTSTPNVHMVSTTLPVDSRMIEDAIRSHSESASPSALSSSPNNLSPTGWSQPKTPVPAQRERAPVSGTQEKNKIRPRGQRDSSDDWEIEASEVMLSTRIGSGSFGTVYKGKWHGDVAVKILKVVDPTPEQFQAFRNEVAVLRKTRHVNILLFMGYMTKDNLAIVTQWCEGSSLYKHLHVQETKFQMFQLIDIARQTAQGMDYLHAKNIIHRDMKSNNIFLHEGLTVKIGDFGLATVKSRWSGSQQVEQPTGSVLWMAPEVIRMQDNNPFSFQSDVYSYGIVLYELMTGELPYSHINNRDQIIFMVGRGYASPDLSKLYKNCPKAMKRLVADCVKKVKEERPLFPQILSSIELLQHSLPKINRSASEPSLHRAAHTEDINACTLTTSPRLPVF
Sequence of wild type B-Raf (P15056 whole entry): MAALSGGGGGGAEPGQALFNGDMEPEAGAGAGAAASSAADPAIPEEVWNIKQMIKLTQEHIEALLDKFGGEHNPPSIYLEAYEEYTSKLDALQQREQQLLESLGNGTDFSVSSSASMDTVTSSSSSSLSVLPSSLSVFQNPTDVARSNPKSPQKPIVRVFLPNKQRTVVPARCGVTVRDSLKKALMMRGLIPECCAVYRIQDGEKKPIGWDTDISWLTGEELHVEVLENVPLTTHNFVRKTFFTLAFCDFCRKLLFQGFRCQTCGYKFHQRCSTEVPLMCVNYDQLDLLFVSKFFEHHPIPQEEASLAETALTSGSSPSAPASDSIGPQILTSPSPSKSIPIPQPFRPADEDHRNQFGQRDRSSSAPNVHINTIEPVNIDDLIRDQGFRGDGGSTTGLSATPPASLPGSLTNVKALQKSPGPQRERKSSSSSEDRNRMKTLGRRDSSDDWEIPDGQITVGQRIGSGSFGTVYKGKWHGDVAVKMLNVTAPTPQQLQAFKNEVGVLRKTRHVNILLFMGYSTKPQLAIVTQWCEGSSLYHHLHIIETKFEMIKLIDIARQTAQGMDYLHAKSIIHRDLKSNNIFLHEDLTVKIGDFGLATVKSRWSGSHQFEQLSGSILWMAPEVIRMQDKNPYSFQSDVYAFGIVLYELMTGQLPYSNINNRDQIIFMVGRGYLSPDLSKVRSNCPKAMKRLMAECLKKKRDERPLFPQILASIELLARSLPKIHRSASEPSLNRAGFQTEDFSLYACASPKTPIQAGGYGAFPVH
Sequence of B-Raf (V600E) (P15056 whole entry V600E): as the sequence (P15056 whole entry) above, with V600E counted along it

With `O=C1CCc2c(Oc3ccc4c(c3)[C@H]3[C@H](NC(=O)Nc5cccc(C(F)(F)F)c5)[C@H]3O4)ccnc2N1` [Compound 1.1, 1-((1S,1aS,6bS)-5-((7-oxo-5,6,7,8-tetrahydro-1,8-naphthyridin-4-yl)oxy)-1a,6b-dihydro-1H-cyclopropa[b]benzofuran-1-yl)-3-(3-(trifluoromethyl)phenyl)urea], the IC50 stood at 8.3 nM on B-Raf (V600E), 1.6 nM on C-Raf (Y340D/Y341D), 43 nM at wild type B-Raf (setting [1]) and 13 nM on wild type B-Raf (setting [2]). For the same molecule, the EC50 in the assay on A375 was found to be 109 nM.

On to `O=C1CCc2c(Oc3ccc4c(c3)[C@H]3[C@H](NC(=O)Nc5cc(C(F)(F)F)ccn5)[C@H]3O4)ccnc2N1` [Compound 1.2], for which the IC50 stood at 4 nM at B-Raf (V600E), 0.77 nM at C-Raf (Y340D/Y341D), 18 nM at wild type B-Raf (setting [1]) and 6.3 nM at wild type B-Raf (setting [2]). For the same molecule, in the assay on A375, the EC50 is 122 nM.

In the case of `COc1cccc(NC(=O)N[C@@H]2[C@H]3Oc4ccc(Oc5ccnc6c5CCC(=O)N6)cc4[C@@H]23)c1Cl` [Compound 1.6], the half-inhibitory concentration (IC50) at B-Raf (V600E) is 1.9 nM; against C-Raf (Y340D/Y341D), 0.33 nM; at wild type B-Raf (setting [1]) it was 11 nM; on wild type B-Raf (setting [2]), 4.5 nM. Further, the EC50 with A375 was found to be 229 nM.

Regarding `O=C1CCc2c(Oc3ccc4c(c3)[C@H]3[C@H](NC(=O)Nc5cc(F)cc(C(F)(F)F)c5)[C@H]3O4)ccnc2N1` [Compound 1.11], the IC50 on B-Raf (V600E) turned out to be 5.5 nM; against C-Raf (Y340D/Y341D), 1.8 nM; on wild type B-Raf (setting [1]), 110 nM; on wild type B-Raf (setting [2]), 30 nM. For the same molecule, in the assay with A375, the EC50 turned out to be 147 nM.

As to `O=C1CCc2c(Oc3ccc4c(c3)[C@H]3[C@H](NC(=O)Nc5cccc(C(F)(F)F)c5F)[C@H]3O4)ccnc2N1` [Compound 1.12], the IC50 at B-Raf (V600E) is 4.7 nM; against C-Raf (Y340D/Y341D), 1.1 nM; at wild type B-Raf (setting [1]) it was 86 nM; at wild type B-Raf (setting [2]) it was 23 nM. The EC50 in the assay with A375 was found to be 106 nM.

Take `O=C1CCc2c(Oc3ccc4c(c3)[C@H]3[C@H](NC(=O)Nc5ccccc5F)[C@H]3O4)ccnc2N1` [Compound 1.21]: the half-inhibitory concentration (IC50) on B-Raf (V600E) stood at 1.1 nM; against C-Raf (Y340D/Y341D), 0.066 nM; at wild type B-Raf (setting [1]) it was 2.5 nM; at wild type B-Raf (setting [2]), 0.87 nM. Besides, the EC50 in the assay on A375 was determined as 128 nM.

`O=C1CCc2c(Oc3ccc4c(c3)[C@H]3[C@H](NC(=O)Nc5cccc(F)c5)[C@H]3O4)ccnc2N1` [Compound 1.22]: the IC50 at B-Raf (V600E) was 1.3 nM; at C-Raf (Y340D/Y341D) it was 0.18 nM; on wild type B-Raf (setting [1]) it was 4.2 nM; at wild type B-Raf (setting [2]) it was 1.7 nM. Moreover, the EC50 with A375 came to 87 nM.

`Cc1cc(NC(=O)N[C@@H]2[C@H]3Oc4ccc(Oc5ccnc6c5CCC(=O)N6)cc4[C@@H]23)ccc1F` [Compound 1.24]: the IC50 at B-Raf (V600E) is 1.5 nM; against C-Raf (Y340D/Y341D), 0.37 nM; at wild type B-Raf (setting [1]), 7.7 nM; at wild type B-Raf (setting [2]), 2.7 nM. In addition, the EC50 with A375 was found to be 25 nM.

As to `O=C1CCc2c(Oc3ccc4c(c3)[C@H]3[C@H](NC(=O)Nc5ccc(Cl)c(C(F)(F)F)c5)[C@H]3O4)ccnc2N1` [Compound 1.25], the IC50 at B-Raf (V600E) worked out at 27 nM; against C-Raf (Y340D/Y341D), 2.3 nM; on wild type B-Raf (setting [2]), 33 nM. Also, in the assay on A375, the EC50 was found to be 25 nM.

On to `O=C1CCc2c(Oc3ccc4c(c3)[C@H]3[C@H](NC(=O)Nc5ccc(Cl)c(Cl)c5)[C@H]3O4)ccnc2N1` [Compound 1.28], for which the IC50 at B-Raf (V600E) turned out to be 5.5 nM; at C-Raf (Y340D/Y341D), 0.77 nM; on wild type B-Raf (setting [1]) it was 49 nM; at wild type B-Raf (setting [2]) it was 16 nM. The EC50 in the assay with A375 is 40 nM.

With `O=C1CCc2c(Oc3ccc4c(c3)[C@H]3[C@H](NC(=O)Nc5ccc(F)cc5)[C@H]3O4)ccnc2N1` [Compound 1.41], the IC50 came to 0.8 nM on B-Raf (V600E), 0.15 nM at C-Raf (Y340D/Y341D) and 0.57 nM on wild type B-Raf (setting [2]). In addition, the EC50 in the assay on A375 was found to be 65 nM.

`O=C1CCc2c(Oc3ccc4c(c3)[C@H]3[C@H](NC(=O)Nc5cccc(F)c5F)[C@H]3O4)ccnc2N1` [Compound 1.42]: the IC50 at B-Raf (V600E) was determined as 0.94 nM; against C-Raf (Y340D/Y341D), 0.24 nM; at wild type B-Raf (setting [2]), 1.5 nM. Also, the EC50 in the assay with A375 turned out to be 178 nM.
